Experimental data as given in paper PMC10957775, “Integrated chemical characterization, metabolite profiling, and pharmacokinetics analysis of Zhijun Tangshen Decoction by UPLC-Q/TOF-MS” (Frontiers in Pharmacology, 2024).

Set-up: AUC(0→t) / Cmax: unit not given beside the values
Settings: rat, in vivo

Row | SMILES | AUC(0→t) | Cmax | MRT(0→t) | Tmax | t1/2
1 | Cc1cc(O[C@@H]2O[C@H](CO)[C@@H](O)[C@H](O)[C@H]2O)cc2oc(CC(C)O)cc(=O)c12 (stereo partly drawn) [P7, 2-(2-Hydroxypropyl)-5-methyl-7-hydroxychromone-7-O-β-D-glucoside] | 1.05±0.08 | 0.23±0.06 | 6.76±1.16 | 0.92±0.95 | 7.53±1.65
2 | CC(CO)C1=C(O)c2ccc3c(c2C(=O)C1=O)CCCC3(C)C (stereo not drawn) [P31, Tanshinone V] | 269.12±44.99 | 44.36±4.60 | 5.85±0.84 | 5.33±2.31 | 7.21
3 | Cc1cc(O)c2c(c1)C(=O)c1cc(C(=O)O)cc(O)c1C2=O [P19, 6-Methyl-rhein] | 406691.82±79143.95 | 79253.50±34585.36 | 5.64±1.31 | – | 1.98±0.38
4 | COc1cc2c(=O)c(-c3ccc(O)cc3)coc2cc1O[C@@H]1O[C@H](CO)[C@@H](O)[C@H](O)[C@H]1O [P9, Glycitin] | 1.99±0.28 | 0.80±0.39 | 4.70±1.01 | 0.92±0.95 | 3.56±1.89
5 | COc1cccc2c1C(=O)c1c(O)cc(C)cc1C2=O [P20, 8-Methyl chrysophanol] | 49952.22±8257.37 | 15105.85±4254.91 | 4.30±0.34 | 0.67±0.29 | 3.38±0.96

Same assay, conditions: rat, in vivo, po

Row | SMILES | AUC (in words) | Tmax [h] | elimination half-life (t1/2) | pharmacokinetic behavior compared with other prototype compounds and metabolites (in words) | level of exposure in the blood (in words) | detection in serum / absorbed form | Cmax / peak concentration (in words) | time to peak (in words)
6 | Cc1ccc2c(c1)C(=O)c1cc(OS(=O)(=O)O)ccc1C2=O [M26] | greater | ≤ 3.5 | less than 4 h | better pharmacokinetic behavior | – | – | – | –
7 | Cc1cc(O)c2c(c1)C(=O)c1cc(O)ccc1C2=O [M61] | greater | – | – | – | – | – | – | –
8 | Oc1ccccc1O [M94] | greater | ≤ 3.5 | > 7.5 h | better pharmacokinetic behavior | – | – | – | –
9 | COc1cccc2c1C(=O)c1c(O)cc(C)cc1C2=O [P20, 8-Methyl chrysophanol] | – | – | – | better pharmacokinetic behavior | higher level of exposure | – | – | –
10 | CC(=O)CCc1ccc(OS(=O)(=O)O)cc1 [M85] | greater | ≤ 3.5 | less than 4 h | better pharmacokinetic behavior | – | – | – | –
11 | O=C1C[C@@H](c2ccc(O)cc2)Oc2cc(O)ccc21 [M18] | – | – | – | – | – | detected in vivo | – | –
12 | O=C1c2ccccc2C(=O)c2ccccc21 [M52] | greater | > 4 | – | better pharmacokinetic behavior | – | – | higher peak concentrations | –
13 | Cc1cc(O)c2c(c1)C(=O)c1cccc(O)c1C2=O [M56] | greater | ≤ 3.5 | > 7.5 h | better pharmacokinetic behavior | – | – | higher peak concentrations | faster time to peak
14 | O=C1C[C@@H](c2ccc(O[C@@H]3O[C@H](CO)[C@@H](O)[C@H](O)[C@H]3O)cc2)Oc2cc(O)ccc21 [liquiritin] | – | – | – | – | – | not detected in the serum | – | –
